Reference: PubChem BioAssay AID250 (DTP/NCI, 2004)
Several values for one entry are separate records, joined by “and”; a condition that tells them apart may be missing. Equal entries are not always repeated. Toxic doses and inconclusive results are not listed.

Tested on: BDF1 mice, L1210 leukemia sc, survival T/C
Assay: NCI In Vivo Anticancer Drug Screen. Data for tumor model L1210 Leukemia (subcutaneous) in B6D2F1 (BDF1) mice
Settings: endpoint: median survival time, higher = longer survival
Method in brief: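 Antitumor activity is assessed in mice with transplanted tumors by comparing the treated group (T) with the vehicle control group (C).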

[1] = dose: 108.0 mg/kg/injection, schedule: Q01DX Z (sc), vehicle: methylcellulose (MC)
[2] = dose: 180.0 mg/kg/injection, schedule: Q01DX Z (sc), vehicle: methylcellulose (MC)
[3] = dose: 300.0 mg/kg/injection, schedule: Q01DX Z (sc), vehicle: methylcellulose (MC)
[4] = dose: 14.0 mg/kg/injection, schedule: Q01DX Z (sc), vehicle: methylcellulose (MC)
[5] = dose: 65.0 mg/kg/injection, schedule: Q01DX Z (sc), vehicle: methylcellulose (MC)

O=NN(CCCl)C(=O)NC1CC2CCC1C2 (stereo not drawn)
T/C (dose: 23.0 mg/kg/injection, schedule: Q01DX Z (oral), vehicle: carboxymethylcellulose (CMC)): 305 % of control | T/C (dose: 23.0 mg/kg/injection, schedule: Q01DX Z (sc), vehicle: carboxymethylcellulose (CMC)): 321 % of control | T/C (dose: 39.0 mg/kg/injection, schedule: Q01DX Z (oral), vehicle: carboxymethylcellulose (CMC)): 542 % of control | T/C (dose: 39.0 mg/kg/injection, schedule: Q01DX Z (sc), vehicle: carboxymethylcellulose (CMC)): 500 % of control | T/C (dose: 65.0 mg/kg/injection, schedule: Q01DX Z (oral), vehicle: carboxymethylcellulose (CMC)): 236 % of control | T/C (dose: 65.0 mg/kg/injection, schedule: Q01DX Z (sc), vehicle: carboxymethylcellulose (CMC)): 289 % of control | T/C (dose: 108.0 mg/kg/injection, schedule: Q01DX Z (oral), vehicle: carboxymethylcellulose (CMC)): 178 % of control

O=C(Nc1ccc(NC2=NCCN2)cc1)c1ccc(C(=O)Nc2ccc(NC3=NCCN3)cc2)cc1
T/C (dose: 1.08 mg/kg/injection, schedule: Q01DX Z (sc), vehicle: water): 110 % of control | T/C (dose: 1.8 mg/kg/injection, schedule: Q01DX Z (sc), vehicle: water): 110 % of control | T/C (dose: 5.0 mg/kg/injection, schedule: Q01DX Z (sc), vehicle: water): 260 % of control | T/C (dose: 8.4 mg/kg/injection, schedule: Q01DX Z (sc), vehicle: water): 175 % of control | T/C (dose: 14.0 mg/kg/injection, schedule: Q01DX Z (sc), vehicle: water): 150 % of control

Nc1ncn(C2OC(CO)C(O)C2O)c(=O)n1 (stereo not drawn)
T/C (dose: 0.5 mg/kg/injection, schedule: Q01DX009 (sc), vehicle: saline): 105 % of control | T/C (dose: 0.5 mg/kg/injection, schedule: Q03HX024 (sc), vehicle: saline): 104 % of control | T/C (dose: 0.75 mg/kg/injection, schedule: Q01DX009 (ip), vehicle: saline): 155 % of control | T/C (dose: 0.75 mg/kg/injection, schedule: Q01DX009 (sc), vehicle: saline): 155 % of control | T/C (dose: 1.0 mg/kg/injection, schedule: Q01DX009 (sc), vehicle: saline): 110 % of control and 111 % of control (2×) | T/C (dose: 1.0 mg/kg/injection, schedule: Q03HX024 (sc), vehicle: saline): 118 % of control | T/C (dose: 1.0 mg/kg/injection, schedule: Q05DX009 (sc), vehicle: saline): 116 % of control and 119 % of control | T/C (dose: 1.5 mg/kg/injection, schedule: Q01DX009 (ip), vehicle: saline): 205 % of control | T/C (dose: 1.5 mg/kg/injection, schedule: Q01DX009 (sc), vehicle: saline): 200 % of control | T/C (dose: 2.0 mg/kg/injection, schedule: Q01DX009 (sc), vehicle: saline): 120 % of control and 121 % of control and 122 % of control | T/C (dose: 2.0 mg/kg/injection, schedule: Q04DX003 (sc), vehicle: saline): 100 % of control | T/C (dose: 2.0 mg/kg/injection, schedule: Q05DX009 (sc), vehicle: saline): 122 % of control and 123 % of control | T/C (dose: 3.0 mg/kg/injection, schedule: Q01DX009 (sc), vehicle: saline): 172 % of control | T/C (dose: 3.0 mg/kg/injection, schedule: Q04DX003 (sc), vehicle: saline): 122 % of control | T/C (dose: 4.0 mg/kg/injection, schedule: Q01DX001 (sc), vehicle: saline): 100 % of control | T/C (dose: 4.0 mg/kg/injection, schedule: Q03HX024 (sc), vehicle: saline): 151 % of control | T/C (dose: 4.0 mg/kg/injection, schedule: Q04DX003 (sc), vehicle: saline): 100 % of control | T/C (dose: 6.0 mg/kg/injection, schedule: Q01DX009 (ip), vehicle: saline): 88 % of control | T/C (dose: 6.0 mg/kg/injection, schedule: Q01DX009 (sc), vehicle: saline): 100 % of control | T/C (dose: 6.0 mg/kg/injection, schedule: Q04DX003 (ip), vehicle: saline): 200 % of control | T/C (dose: 6.0 mg/kg/injection, schedule: Q04DX003 (sc), vehicle: saline): 183 % of control | T/C (dose: 8.0 mg/kg/injection, schedule: Q01DX001 (sc), vehicle: saline): 105 % of control | T/C (dose: 8.0 mg/kg/injection, schedule: Q01DX009 (sc), vehicle: saline): 105 % of control | T/C (dose: 8.0 mg/kg/injection, schedule: Q03HX024 (sc), vehicle: saline): 110 % of control | T/C (dose: 8.0 mg/kg/injection, schedule: Q04DX003 (sc), vehicle: saline): 110 % of control | T/C (dose: 12.0 mg/kg/injection, schedule: Q01DX001 (sc), vehicle: saline): 155 % of control | T/C (dose: 12.0 mg/kg/injection, schedule: Q04DX003 (ip), vehicle: saline): 150 % of control | T/C (dose: 12.0 mg/kg/injection, schedule: Q04DX003 (sc), vehicle: saline): 150 % of control | T/C (dose: 16.0 mg/kg/injection, schedule: Q01DX001 (sc), vehicle: saline): 120 % of control | T/C (dose: 16.0 mg/kg/injection, schedule: Q01DX009 (sc), vehicle: saline): 108 % of control and 111 % of control | T/C (dose: 16.0 mg/kg/injection, schedule: Q04DX003 (sc), vehicle: saline): 120 % of control | T/C (dose: 16.0 mg/kg/injection, schedule: Q05DX009 (sc), vehicle: saline): 111 % of control and 113 % of control | T/C (dose: 24.0 mg/kg/injection, schedule: Q01DX001 (ip), vehicle: saline): 155 % of control | T/C (dose: 24.0 mg/kg/injection, schedule: Q01DX001 (sc), vehicle: saline): 166 % of control | T/C (dose: 24.0 mg/kg/injection, schedule: Q04DX003 (sc), vehicle: saline): 105 % of control | T/C (dose: 48.0 mg/kg/injection, schedule: Q01DX001 (ip), vehicle: saline): 166 % of control | T/C (dose: 48.0 mg/kg/injection, schedule: Q01DX001 (sc), vehicle: saline): 166 % of control | T/C (dose: 48.0 mg/kg/injection, schedule: Q04DX003 (ip), vehicle: saline): 100 % of control | T/C (dose: 48.0 mg/kg/injection, schedule: Q04DX003 (sc), vehicle: saline): 122 % of control

S=c1nc[nH]c2c1ncn2C1CCCO1 (stereo not drawn)
T/C [1]: 120 % of control | T/C [2]: 120 % of control | T/C [3]: 100 % of control

Clc1ncnc2c1ncn2C1CCCO1 (stereo not drawn)
T/C (dose: 8.4 mg/kg/injection, schedule: Q01DX Z (sc), vehicle: methylcellulose (MC)): 100 % of control | T/C [4]: 100 % of control | T/C (dose: 23.0 mg/kg/injection, schedule: Q01DX Z (sc), vehicle: methylcellulose (MC)): 100 % of control | T/C (dose: 39.0 mg/kg/injection, schedule: Q01DX Z (sc), vehicle: methylcellulose (MC)): 100 % of control | T/C [5]: 100 % of control | T/C [1]: 100 % of control | T/C [2]: 100 % of control | T/C [3]: 110 % of control | T/C (dose: 500.0 mg/kg/injection, schedule: Q01DX Z (sc), vehicle: methylcellulose (MC)): 100 % of control

CCOC(C)C(=O)C=O (stereo not drawn)
T/C (dose: 23.0 mg/kg/injection, schedule: Q01DX Z (sc), vehicle: water): 100 % of control | T/C (dose: 39.0 mg/kg/injection, schedule: Q01DX Z (sc), vehicle: water): 100 % of control | T/C (dose: 65.0 mg/kg/injection, schedule: Q01DX Z (sc), vehicle: water): 100 % of control | T/C (dose: 108.0 mg/kg/injection, schedule: Q01DX Z (sc), vehicle: water): 100 % of control | T/C (dose: 180.0 mg/kg/injection, schedule: Q01DX Z (sc), vehicle: water): 100 % of control | T/C (dose: 300.0 mg/kg/injection, schedule: Q01DX Z (sc), vehicle: water): 100 % of control | T/C (dose: 500.0 mg/kg/injection, schedule: Q01DX Z (sc), vehicle: water): 105 % of control

C=CC(CN1CC1)OC(C)=O (stereo not drawn)
T/C (dose: 2.8 mg/kg/injection, schedule: Q01DX Z (sc), vehicle: saline): 111 % of control | T/C (dose: 4.7 mg/kg/injection, schedule: Q01DX Z (sc), vehicle: saline): 122 % of control | T/C (dose: 7.8 mg/kg/injection, schedule: Q01DX Z (sc), vehicle: saline): 150 % of control | T/C (dose: 13.0 mg/kg/injection, schedule: Q01DX Z (sc), vehicle: saline): 188 % of control | T/C (dose: 22.0 mg/kg/injection, schedule: Q01DX Z (sc), vehicle: saline): 155 % of control | T/C (dose: 60.0 mg/kg/injection, schedule: Q01DX Z (sc), vehicle: saline): 122 % of control

ClCCN(CCCl)c1ccc(CCNc2ccnc3cc(Cl)ccc23)cc1
T/C [4]: 100 % of control | T/C [5]: 100 % of control
